Experimental data as given in paper PMC7402526, “An in vitro quantitative systems pharmacology approach for deconvolving mechanisms of drug-induced, multilineage cytopenias” (PLoS Computational Biology, 2020).

What was measured:
[1] = system: hematopoietic stem cells (HSCs); experiment: Multi-lineage toxicity assay (MLTA), HSCs: concentration-response and QSP model fit; type: cell-based, human; design: EmaxAP,HSC / EmaxT,HSC / Emax_drug_HSC: unitless, 0–2; ≤1 anti-proliferative, >1 adds cell killing
Outline: (§1)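 Six-day flow cytometry counts, bead-normalized and expressed relative to the mean of six vehicle wells, underlie each value. Cells were primary human bone marrow CD34+ cells cultured in SFEM II with cytokines promoting multi-lineage differentiation and self-renewal.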

[2] = system: late erythroid cells (Eryth II); experiment: MLTA, ErythII: concentration-response and QSP model fit; type: cell-based, human; conditions: Homo sapiens, 144 h
Outline: as §1

[3] = system: granulocyte progenitor (Gran-lin prog); experiment: MLTA, GranP: concentration-response and QSP model fit; type: cell-based, human; conditions: Homo sapiens, 144 h
Outline: (§2)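 Freeze-thawed primary human bone marrow CD34+ cells were grown in SFEM II with a multi-lineage cytokine cocktail, drug added day 0, six days at 37°C. Lineage counts came from 17-parameter flow with TruCount beads, vehicle-normalized per donor, then fitted by an Emax-based QSP model.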

[4] = system: human bone marrow-derived CD34+ cells differentiated into multiple hematopoietic lineages; experiment: MLTA, overall effects across hematopoietic lineages; type: cell-based; conditions: QSP model fit; EmaxT > 1.0 = cell-killing
Description: A custom optimized cytokine cocktail was developed using commercially available cytokines (Peprotech, New Jersey) to facilitate simultaneous multi-lineage differentiation and self-renewal of freeze-thawed primary human bone marrow-derived CD34+ cells in SFEM II media (cells and media from StemCell Technologies, Vancouver). Cultures were carried out in ultra-low attachment 96-well plates (Corning, New York) with test article added on day 0 and cultured at 37°C, 85% relative humidity, and 5% CO2 for six days before interrogating drug impact via 17-parameter flow cytometry.
The flow cytometry panel used to define hematopoietic subsets was composed of CD34-PECy7, CD90-PECY5, CD38-AF488, CD371-PE, CD45Ra-BV421, CD14-BV605, CD42b-AF647, CD10-PEDazzle594, CD235a-PerCPCy5.5 (BioLegend, California), CD15-BUV395, CD41a-APCH7, CD71-BV786 (BD Biosciences, California), and DAPI for dead cell exclusion (ThermoFisher, California). In short, Day 6 cells were harvested, FcR-blocked (FcR binding inhibitor, ThermoFisher), surface-stained, then analyzed in a buffer containing TruCount Control Beads using a BD LSR Fortessa SORP fitted with a high-throughput sampler (BD Biosciences, California). Data was analyzed in Diva 6.0.2 and exported to CSV where after all cell data was transformed to cell per mL then normalized on a per-donor basis to untreated control wells to determine drug impact.
Donor material was collected and cultured as described above. The number of replicate donor samples per drug ranged from 2–7 and varied per drug (S1 Table). Drug treatment was added at time 0 and cells were maintained in culture for 6 days. Concentrations tested for each drug compound are contained in S1 Table. Concentrations were selected to span a range that is clinically useful. Following treatment, cell populations were measured using flow cytometry. We extracted cell counts from flow cytometry data, normalized to bead counts, and corrected for well volume.
Each well was normalized to the average of six vehicle control wells. For drugs that were tested across multiple runs of the assay, vehicle-normalized donor data were pooled, and we used the average of these pooled data for further modeling. Normalized data used as model inputs are included in S1 Table.
We implemented drug effects using an Emax model for the drug’s effect on each cell type. The 13 maximum effect parameters (EmaxT,C) are unitless and can vary between 0 and 2 and where a subscript, C, represents one of the previously described 13 cell types. We adapted a traditional Emax model using the equations below. We interpreted EmaxT values less than or equal to one as anti-proliferative, and EmaxT values greater than one as indicating a cell-killing mechanism in addition to anti-proliferation. The relationships for these effects are included in the model using the following equations. Eq 2 describes the drug anti-proliferative effect in the net proliferation rate for a given cell type. Eq 3 describes the cell-killing EmaxCK effect.

[5] = system: multi-potent progenitors (MPPs); experiment: MLTA, MPPs: concentration-response and QSP model fit; type: cell-based, human; conditions: Homo sapiens, 144 h
Outline: as §1

MK cells (MK-lin) = experiment: MLTA, MK: concentration-response and QSP model fit; type: cell-based, human; conditions: Homo sapiens, 144 h
Outline: as §1

[6] = system: neutrophils (neutrophil-lin); experiment: MLTA, Neut: concentration-response and QSP model fit; type: cell-based, human; conditions: Homo sapiens, Neutrophil, 144 h
Outline: as §1

[7] = system: early erythroid cells (Eryth I); experiment: MLTA, ErythI: concentration-response and QSP model fit; type: cell-based, human; conditions: Homo sapiens, 144 h
Outline: as §2

[8] = QSP model fit of 6-day MLTA data

Structure (SMILES): CC(=O)c1c(C)c2cnc(Nc3ccc(N4CCNCC4)cn3)nc2n(C2CCCC2)c1=O [palbociclib]
- EC50 ([1]; Homo sapiens, Hematopoietic stem cell, 144 h, QSP model fit of 6-day MLTA data): 166 nM
- activity at 0.0002 µM ([1]; Homo sapiens, Hematopoietic stem cell, 144 h, dose 0.2 nM, 6 days, normalized to vehicle control, read-out: HSCs normalized cell count): 89.4%
- activity at 0.001 µM ([1]; Homo sapiens, Hematopoietic stem cell, 144 h, dose 1 nM, 6 days, normalized to vehicle control, read-out: HSCs normalized cell count): 92%
- activity at 0.005 µM ([1]; Homo sapiens, Hematopoietic stem cell, 144 h, dose 5 nM, 6 days, normalized to vehicle control, read-out: HSCs normalized cell count): 98.5%
- activity at 0.025 µM ([1]; Homo sapiens, Hematopoietic stem cell, 144 h, dose 25 nM, 6 days, normalized to vehicle control, read-out: HSCs normalized cell count): 83.4%
- activity at 0.1 µM ([1]; Homo sapiens, Hematopoietic stem cell, 144 h, dose 100 nM, 6 days, normalized to vehicle control, read-out: HSCs normalized cell count): 48.9%
- activity at 0.5 µM ([1]; Homo sapiens, Hematopoietic stem cell, 144 h, dose 500 nM, 6 days, normalized to vehicle control, read-out: HSCs normalized cell count): 25%
- activity at 2.5 µM ([1]; Homo sapiens, Hematopoietic stem cell, 144 h, dose 2500 nM, 6 days, normalized to vehicle control, read-out: HSCs normalized cell count): 9.86%
- Emax ([1]; Homo sapiens, Hematopoietic stem cell, 144 h, parameter from QSP model fitting, read-out: Emax_drug_HSC): 77.6%
- EmaxAP,HSC ([1]; anti-proliferation component, min(1, EmaxT)): 0.776
- EC50 ([2]; QSP model fit of 6-day MLTA data, read-out: EC50ErythII): 99.5 nM
- activity at 0.0002 µM ([2]; dose 0.2 nM, 6 days, normalized to vehicle control, read-out: ErythII normalized cell count): 89%
- activity at 0.001 µM ([2]; dose 1 nM, 6 days, normalized to vehicle control, read-out: ErythII normalized cell count): 103%
- activity at 0.005 µM ([2]; dose 5 nM, 6 days, normalized to vehicle control, read-out: ErythII normalized cell count): 99.1%
- activity at 0.025 µM ([2]; dose 25 nM, 6 days, normalized to vehicle control, read-out: ErythII normalized cell count): 82.3%
- activity at 0.1 µM ([2]; dose 100 nM, 6 days, normalized to vehicle control, read-out: ErythII normalized cell count): 56.9%
- activity at 0.5 µM ([2]; dose 500 nM, 6 days, normalized to vehicle control, read-out: ErythII normalized cell count): 30.3%
- activity at 2.5 µM ([2]; dose 2500 nM, 6 days, normalized to vehicle control, read-out: ErythII normalized cell count): 14.3%
- Emax ([2]; parameter from QSP model fitting, read-out: Emax_drug_ErythroidII): 11.8%
- activity at 0.0002 µM ([3]; dose 0.2 nM, 6 days, normalized to vehicle control, read-out: GranPs normalized cell count): 98.2%
- activity at 0.001 µM ([3]; dose 1 nM, 6 days, normalized to vehicle control, read-out: GranPs normalized cell count): 107%
- activity at 0.005 µM ([3]; dose 5 nM, 6 days, normalized to vehicle control, read-out: GranPs normalized cell count): 91.8%
- activity at 0.025 µM ([3]; dose 25 nM, 6 days, normalized to vehicle control, read-out: GranPs normalized cell count): 73.4%
- activity at 0.1 µM ([3]; dose 100 nM, 6 days, normalized to vehicle control, read-out: GranPs normalized cell count): 37%
- activity at 0.5 µM ([3]; dose 500 nM, 6 days, normalized to vehicle control, read-out: GranPs normalized cell count): 8.03%
- activity at 2.5 µM ([3]; dose 2500 nM, 6 days, normalized to vehicle control, read-out: GranPs normalized cell count): 0.794%
- Emax ([3]; parameter from QSP model fitting, read-out: Emax_drug_GranP): 4.7%
- EmaxT effects across cell types (overall statement) [4]: anti-proliferation effects on essentially just the HSCs and GMPs
- activity at 0.0002 µM ([5]; dose 0.2 nM, 6 days, normalized to vehicle control, read-out: MPPs normalized cell count): 86.4%
- activity at 0.001 µM ([5]; dose 1 nM, 6 days, normalized to vehicle control, read-out: MPPs normalized cell count): 88.4%
- activity at 0.005 µM ([5]; dose 5 nM, 6 days, normalized to vehicle control, read-out: MPPs normalized cell count): 77.3%
- activity at 0.025 µM ([5]; dose 25 nM, 6 days, normalized to vehicle control, read-out: MPPs normalized cell count): 45.6%
- activity at 0.1 µM ([5]; dose 100 nM, 6 days, normalized to vehicle control, read-out: MPPs normalized cell count): 23.3%
- activity at 0.5 µM ([5]; dose 500 nM, 6 days, normalized to vehicle control, read-out: MPPs normalized cell count): 11%
- activity at 2.5 µM ([5]; dose 2500 nM, 6 days, normalized to vehicle control, read-out: MPPs normalized cell count): 5.77%
- Emax ([5]; parameter from QSP model fitting, read-out: Emax_drug_MPP): 0.0264%
- EC50 (MK cells (MK-lin); [8]): 759 nM
- activity at 0.0002 µM (MK cells (MK-lin); dose 0.2 nM, 6 days, normalized to vehicle control, read-out: MK normalized cell count): 86%
- activity at 0.001 µM (MK cells (MK-lin); dose 1 nM, 6 days, normalized to vehicle control, read-out: MK normalized cell count): 96.6%
- activity at 0.005 µM (MK cells (MK-lin); dose 5 nM, 6 days, normalized to vehicle control, read-out: MK normalized cell count): 89.1%
- activity at 0.025 µM (MK cells (MK-lin); dose 25 nM, 6 days, normalized to vehicle control, read-out: MK normalized cell count): 91.2%
- activity at 0.1 µM (MK cells (MK-lin); dose 100 nM, 6 days, normalized to vehicle control, read-out: MK normalized cell count): 62.2%
- activity at 0.5 µM (MK cells (MK-lin); dose 500 nM, 6 days, normalized to vehicle control, read-out: MK normalized cell count): 23.6%
- activity at 2.5 µM (MK cells (MK-lin); dose 2500 nM, 6 days, normalized to vehicle control, read-out: MK normalized cell count): 7.89%
- Emax (MK cells (MK-lin); parameter from QSP model fitting, read-out: Emax_drug_MK): 7.37%
- EC50 [6, 8]: 75 nM
- activity at 0.0002 µM ([6]; dose 0.2 nM, 6 days, normalized to vehicle control, read-out: Neut normalized cell count): 95.1%
- activity at 0.001 µM ([6]; dose 1 nM, 6 days, normalized to vehicle control, read-out: Neut normalized cell count): 93.8%
- activity at 0.005 µM ([6]; dose 5 nM, 6 days, normalized to vehicle control, read-out: Neut normalized cell count): 74.6%
- activity at 0.025 µM ([6]; dose 25 nM, 6 days, normalized to vehicle control, read-out: Neut normalized cell count): 51.7%
- activity at 0.1 µM ([6]; dose 100 nM, 6 days, normalized to vehicle control, read-out: Neut normalized cell count): 21.1%
- activity at 0.5 µM ([6]; dose 500 nM, 6 days, normalized to vehicle control, read-out: Neut normalized cell count): 3.9%
- activity at 2.5 µM ([6]; dose 2500 nM, 6 days, normalized to vehicle control, read-out: Neut normalized cell count): 0.666%
- Emax ([6]; parameter from QSP model fitting, read-out: Emax_drug_Neut): 18.4%
- activity at 0.0002 µM ([7]; dose 0.2 nM, 6 days, normalized to vehicle control, read-out: ErythI normalized cell count): 104%
- activity at 0.001 µM ([7]; dose 1 nM, 6 days, normalized to vehicle control, read-out: ErythI normalized cell count): 109%
- activity at 0.005 µM ([7]; dose 5 nM, 6 days, normalized to vehicle control, read-out: ErythI normalized cell count): 96.4%
- activity at 0.025 µM ([7]; dose 25 nM, 6 days, normalized to vehicle control, read-out: ErythI normalized cell count): 72.1%
- activity at 0.1 µM ([7]; dose 100 nM, 6 days, normalized to vehicle control, read-out: ErythI normalized cell count): 35.1%
- activity at 0.5 µM ([7]; dose 500 nM, 6 days, normalized to vehicle control, read-out: ErythI normalized cell count): 9.41%
- activity at 2.5 µM ([7]; dose 2500 nM, 6 days, normalized to vehicle control, read-out: ErythI normalized cell count): 2.34%
- Emax ([7]; parameter from QSP model fitting, read-out: Emax_drug_ErythroidI): 0.04%
